In patent publication US12622892B2, “Methods for treating endometriosis” (THE TEXAS A&M UNIVERSITY SYSTEM, priority 2020, dated 2026):

What was measured:
[1] = target: T1, NR4A1 (Homo sapiens, UniProt P22736); assay: Luciferase assay, NR4A1/NBRE-luc in ESECT-7 cells; assay type: cell-based; conditions: ESECT-7 cells transfected with NR4A1/NBRE-luc; 18 hr treatment; FIG. 2A
T1 construct: expressed in transfected cells; host or cells: ESECT-7 patient-derived endometriotic cells
Experimental: (§1) Luciferase assay: ESECT-7 and ESECT-40 cells were plated on 12-well plates in DMEM/F12 supplemented with 2.5% charcoal-stripped FBS. After overnight attachment and growth, various amounts of DNA [i.e., UASx5-Luc (500 ng), GAL4-NR4A1 (50 ng), NBREx3-Luc (800 ng), NurREx3-Luc (800 ng) and Flag-NR4A1 (80 ng)] were co-transfected into each well using Lipofectamine 2000 reagent (Invitrogen, Carlsbad, CA) according to the manufacturer's protocol. After 6 hr of transfection, cells were treated with plating medium (as above) containing either solvent (DMSO) or indicated concentrations of the compound for 18 hr. Cells were then lysed and cell extracts were used for chemiluminescence quantification of luciferase activity. Luciferase activity values were normalized against corresponding protein concentration values determined by Bradford assay. Both GAL4- and Flag-NR4A1 constructs contain full-length NR4A1 coding sequence and all the plasmids used in this study were previously described.

[2] = target: T2, GAL4-NR4A1 (Homo sapiens, UniProt P22736); assay: Luciferase assay, GAL4-NR4A1 chimera/UAS-luc in ESECT-7 cells; assay type: cell-based; conditions: ESECT-7 cells transfected with GAL4-NR4A1 chimera/UAS-luc; 18 hr treatment; FIG. 2A
T2 construct: GAL4 (fusion partner); expressed in transfected cells; host or cells: ESECT-7 patient-derived endometriotic cells
Experimental: as §1

[3] = system: ESECT-7 cells; assay: Cell proliferation assay (MTT), ESECT-7; assay type: cell-based, human; conditions: 24 hr; 5-10 μM DIM-C-pPhOH-3-Cl-5-OCH3, 15-25 μM DIM-C-pPhOH; FIG. 2C
Experimental: (§2) Primary human endometriotic stromal cells from endometriosis patients: Ovarian endometrioma were isolated from endometriosis patients in the proliferative phase following the IRB-approved protocol. Isolated ectopic lesions were digested with collagenase type 3 (300 μg/ml) and DNaseI (40 μg/ml) for 90 min at 37° C., and then tissues were filtered through 150, 100, and 40 μm sieves to isolate endometrial stromal cells. The collected endometrial stromal cells were cultured in DMEM/F12 with 10% FBS plus 1× antibiotic/antimycotic solution and then validated by flow cytometry with a CD90 antibody (a mesenchymal marker). Henceforth, we refer to the stromal cells as ectopic endometrium isolated ovarian endometrioma (ESECT). As the control, primary normal endometrial stromal cells isolated from the biopsy of the eutopic endometrium of normal women (NEM) in the proliferative phase. All cells were incubated at 37° C. in CO2 incubator in an atmosphere of humidified 5% CO2 and 95% air.
(§3) Cell proliferation assay: Patient-derived endometriotic cells ESECT-7 and ESECT-40 were seeded into a 96-well plate, and the cells were then treated for 24 hr with either DMSO or different concentrations of DIM-C-pPhOH and DIM-C-pPhOH-3-Cl-5-OCH3. […] Dimethyl sulfoxide (DMSO) was added and incubated at […] for 10 min, and absorbance was measured at 570 nm.

[4] = system: NEM cells; assay: Annexin V staining, NEM cells; assay type: cell-based, human; conditions: 25 μM DIM-C-pPhOH, 10 μM DIM-C-pPhOH-3-Cl-5-OCH3, vs DMSO control, FIG. 4C
[5] = system: Ishikawa cells; assay: Expression of fibrosis markers in Ishikawa cells; assay type: cell-based; conditions: 24 hours, FIG. 6D
[6] = system: IHEECs; assay: Expression of fibrosis markers in IHEECs; assay type: cell-based, human; conditions: 24 hours, vs control, FIG. 6B
[7] = system: ESECT-7 cells; assay: Quantitative real-time PCR of fibrosis markers, ESECT-7; assay type: cell-based, human; conditions: 24 hours, 20-25 μM DIM-C-pPhOH, 5-10 μM DIM-C-pPhOH-3-Cl-5-OCH3, vs DMSO control, FIG. 5C
Experimental: Quantitative real-time PCR: Total RNA was isolated from cultured cells according to the manufacturer's instructions (Zymo Research, Irvine, CA). The concentration and purity of the RNA samples were determined using a nanodrop spectrophotometer. Total RNA was reverse transcribed using iTaq Universal SYBR Green One-Step Kit (Thermo Fisher Scientific, Grand Island, NY) using the manufacturer's protocol with the CFX384 real-time PCR System (Bio-Rad). The comparative cycle threshold method was used for relative quantitation of samples. Values for each gene were normalized to expression levels of TATA-binding protein. The sequences of the primers used for real-time PCR included the following: α-SMA, 5′-GGCCGAGATCTCACTGACTAC-3′ (sense, SEQ ID NO. 13) and 5′-TTC ATG GAT GCC AGC AGA-3′ (antisense, SEQ ID NO. 14); COL1A1, 5′-CAG CCG CTT CAC CTA CAG C-3′ (sense, SEQ ID NO. 15) and 5′-TTTTGTATTCAATCAGTGTCTTGCC-3′ (antisense, SEQ ID NO. 16); CTGF, 5′-TTGGCCCAGACCCAACTATG-3′(sense, SEQ ID NO. 17) and 5′-CAGGAGGCGTTGTCATTGGT-3′ (antisense, SEQ ID NO. 18); FN, 5′-GGG AGC CTC GAA GAG C-3′ (sense 19) and 5′-AACAAGTACAAACCAACGCA-3′ (antisense, SEQ ID NO. 20) and TATA-binding protein, 5′-GATCAGAACAACAGCCTGCC-3′ (sense, SEQ ID NO. 21) and 5′-TTCTGAATAGGCTGTGGGGT-3′ […].

[8] = system: ESECT-7 cells; assay: Annexin V staining, ESECT-7; assay type: cell-based, human; conditions: 10 μM DIM-C-pPhOH-3-Cl-5-OCH3, 25 μM DIM-C-pPhOH, FIG. 3A
Experimental: (§4) Annexin V staining: ESECT-7 and ESECT-40 cells were seeded in Nunc chambered cover glass followed by various drug treatments. The cells were then washed with ice-cold PBS, and 5 μL Alexa Fluor® 488 Annexin V with 100 μg/mL PI (as per the manufacturer's instructions) were added to the cells and incubated for 15 min, and the cells were observed using a Zeiss confocal fluorescence microscope.

[9] = system: NEM cells; assay: Cell growth, normal endometrial NEM cells; assay type: cell-based, human; conditions: 24 hr; 15-25 μM DIM-C-pPhOH, 5-10 μM DIM-C-pPhOH-3-Cl-5-OCH3; vs DMSO control; FIG. 4A
Experimental: as §2, §3

[10] = system: NEM cells; assay: Western blotting of growth promoting and proapoptotic gene products, NEM cells; assay type: cell-based, human
[11] = system: ESECT-7 cells; assay: α-SMA immunofluorescence, ESECT-7; assay type: cell-based, human; conditions: vs control, FIG. 5A
Experimental: Immunofluorescence: ESECT-7 and ESECT-40 cells were seeded in Nunc chambered cover-glass followed by various drug treatments. The cells were fixed with 4% paraformaldehyde in PBS for 20 minutes at 37° C. Cells were then blocked and incubated overnight with primary α-SMA antibody in the buffer (5% bovine serum albumin in PBS) at 4° C., followed by incubation with Alexa Fluor conjugated secondary antibody at a dilution of 1:250 for 2 hours at room temperature. Finally, cells were observed using a Zeiss confocal fluorescence microscope.

[12] = system: ESECT-40 cells; assay: Annexin V staining, ESECT-40; assay type: cell-based, human; conditions: 10 μM DIM-C-pPhOH-3-Cl-5-OCH3, 25 μM DIM-C-pPhOH, FIG. 3B
Experimental: as §4

[13] = system: ESECT-40 cells; assay: Cell proliferation assay (MTT), ESECT-40; assay type: cell-based, human; conditions: 24 hr; 5-10 μM DIM-C-pPhOH-3-Cl-5-OCH3, 15-25 μM DIM-C-pPhOH; FIG. 2C
Experimental: as §2, §3

[14] = target: T3, NR4A1 (Mus musculus, UniProt P12813); conditions: C2C12 muscle cells; cited from earlier work
T3 construct: endogenous in cells; host or cells: C2C12 muscle cells

[15] = system: NESC and EESC cells; conditions: Zeng et al. 2018; cited from earlier work

T1 sequence (P22736 whole entry, species assumed): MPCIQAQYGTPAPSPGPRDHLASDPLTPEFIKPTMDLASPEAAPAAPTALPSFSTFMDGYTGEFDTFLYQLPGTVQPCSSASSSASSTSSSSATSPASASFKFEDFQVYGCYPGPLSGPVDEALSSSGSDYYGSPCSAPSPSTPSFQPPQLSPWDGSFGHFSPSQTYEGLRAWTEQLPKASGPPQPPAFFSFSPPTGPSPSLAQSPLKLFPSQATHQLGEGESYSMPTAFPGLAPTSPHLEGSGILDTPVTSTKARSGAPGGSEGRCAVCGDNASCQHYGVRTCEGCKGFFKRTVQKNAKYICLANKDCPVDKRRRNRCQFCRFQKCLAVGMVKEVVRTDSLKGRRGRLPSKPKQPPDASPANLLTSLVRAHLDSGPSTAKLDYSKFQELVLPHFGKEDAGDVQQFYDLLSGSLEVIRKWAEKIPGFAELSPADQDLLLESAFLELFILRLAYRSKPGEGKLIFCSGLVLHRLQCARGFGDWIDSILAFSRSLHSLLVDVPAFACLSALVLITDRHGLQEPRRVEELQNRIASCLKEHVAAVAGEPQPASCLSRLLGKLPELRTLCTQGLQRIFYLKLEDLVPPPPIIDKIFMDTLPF
T2 sequence (P22736 with tags, fused parts or gaps): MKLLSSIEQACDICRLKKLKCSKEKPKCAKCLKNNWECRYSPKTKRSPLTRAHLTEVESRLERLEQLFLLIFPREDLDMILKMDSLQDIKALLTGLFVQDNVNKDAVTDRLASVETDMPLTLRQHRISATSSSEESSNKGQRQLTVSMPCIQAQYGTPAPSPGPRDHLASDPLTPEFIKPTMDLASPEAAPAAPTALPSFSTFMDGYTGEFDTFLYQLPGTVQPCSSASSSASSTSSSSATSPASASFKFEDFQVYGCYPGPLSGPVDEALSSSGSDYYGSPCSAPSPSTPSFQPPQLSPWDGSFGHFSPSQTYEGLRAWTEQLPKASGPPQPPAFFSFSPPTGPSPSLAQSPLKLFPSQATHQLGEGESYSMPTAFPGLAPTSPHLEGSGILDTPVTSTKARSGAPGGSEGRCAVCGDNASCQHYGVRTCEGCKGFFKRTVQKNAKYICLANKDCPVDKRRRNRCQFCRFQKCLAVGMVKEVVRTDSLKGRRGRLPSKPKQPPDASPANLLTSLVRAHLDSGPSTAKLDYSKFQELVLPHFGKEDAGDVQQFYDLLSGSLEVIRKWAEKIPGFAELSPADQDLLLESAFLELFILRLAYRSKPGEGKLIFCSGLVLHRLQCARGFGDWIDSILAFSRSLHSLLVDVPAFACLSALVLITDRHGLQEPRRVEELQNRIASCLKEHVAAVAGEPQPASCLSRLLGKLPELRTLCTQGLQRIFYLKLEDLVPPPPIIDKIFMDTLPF
T3 sequence (P12813 whole entry): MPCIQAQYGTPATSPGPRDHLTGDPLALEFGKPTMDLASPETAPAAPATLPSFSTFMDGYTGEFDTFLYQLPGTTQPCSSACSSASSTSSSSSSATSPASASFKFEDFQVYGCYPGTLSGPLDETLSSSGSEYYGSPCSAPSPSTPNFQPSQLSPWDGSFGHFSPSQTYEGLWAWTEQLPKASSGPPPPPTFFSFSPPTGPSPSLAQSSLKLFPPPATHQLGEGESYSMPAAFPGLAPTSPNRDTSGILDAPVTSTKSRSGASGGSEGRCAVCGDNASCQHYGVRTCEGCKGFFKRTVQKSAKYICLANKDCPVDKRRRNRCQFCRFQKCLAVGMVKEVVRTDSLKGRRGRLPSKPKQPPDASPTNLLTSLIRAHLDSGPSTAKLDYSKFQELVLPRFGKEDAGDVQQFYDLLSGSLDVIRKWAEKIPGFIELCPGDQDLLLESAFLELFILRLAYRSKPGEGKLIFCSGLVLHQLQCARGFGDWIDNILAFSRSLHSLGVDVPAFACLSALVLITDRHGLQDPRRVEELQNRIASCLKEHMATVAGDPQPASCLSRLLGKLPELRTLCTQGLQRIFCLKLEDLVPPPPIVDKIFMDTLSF

## Oc1c(Br)cc(C(c2c[nH]c3ccccc23)c2c[nH]c3ccccc23)cc1Br [4-OH-3,5-Br2]
[1]
  intrinsic transcriptional activity of NR4A1: inhibited the intrinsic transcriptional activity
[2]
  intrinsic transcriptional activity of GAL4-NR4A1: inhibited the intrinsic transcriptional activity

## Oc1ccc(C(c2c[nH]c3ccccc23)c2c[nH]c3ccccc23)cc1Cl [4-OH-3-Cl, 1,1-bis(3′-indolyl)-1-(3-chloro-4-hydroxyphenyl)methane]
[1]
  intrinsic transcriptional activity of NR4A1: inhibited the intrinsic transcriptional activity
[2]
  intrinsic transcriptional activity of GAL4-NR4A1: inhibited the intrinsic transcriptional activity

## Oc1ccc(C(c2c[nH]c3ccccc23)c2c[nH]c3ccccc23)cc1 [DIM-C-pPhOH, 1,1-bis(3′-indolyl)-1-(p-hydroxyphenyl)methane]
[3]
  growth of ESECT-7 cells: inhibited cell growth
[4]
  Annexin V staining: did not enhance
[5]
  expression of fibrosis markers (α-SMA, COL1A1, FN, CTGF): decreased expression of fibrosis markers
[1]
  intrinsic transcriptional activity of NR4A1: inhibited the intrinsic transcriptional activity
[6]
  expression of fibrosis markers (α-SMA, COL1A1, FN, CTGF): decreased expression of fibrosis markers
[7]
  mRNA levels of fibrosis markers (FN, Col1A1, CTGF): decreased mRNA levels
[8]
  Annexin V staining (apoptosis): induced apoptosis
[9]
  growth of normal endometrial NEM cells: did not suppress the growth
[10]; 25 μM DIM-C-pPhOH, 10 μM DIM-C-pPhOH-3-Cl-5-OCH3, vs DMSO control, FIG. 4D
  levels of the cleaved form of PARP and Bax: did not enhance
[10]; 15-25 μM DIM-C-pPhOH, 5-10 μM DIM-C-pPhOH-3-Cl-5-OCH3, vs DMSO control, FIG. 4B
  cMyc and EGFR expression: did not decrease
[11]
  expression of SMA levels: decreased expression of SMA levels
[12]
  Annexin V staining (apoptosis): induced apoptosis
[13]
  growth of ESECT-40 cells: inhibited cell growth
[2]
  intrinsic transcriptional activity of GAL4-NR4A1: inhibited the intrinsic transcriptional activity
[14]
  NR4A1 agonist activity, induction of genes involved in glucose uptake: worked as NR4A1 agonists

## CCCCCCCC(=O)c1c(O)cc(O)cc1CC(=O)OCC [cytosporone β]
[15]
  TGFβ-induced fibrosis: inhibited TGFβ-induced fibrosis
